{"source": "paper PMC10541198", "about": "“Specific quinone reductase 2 inhibitors reduce metabolic burden and reverse Alzheimer’s disease phenotype in mice” (The Journal of Clinical Investigation, 2023)", "tested_on": "5xFAD mice", "assay": "Novel object recognition in 5xFAD mice", "assay_type": "in vivo, mouse", "parameters": "key: (novel − familiar)/(novel + familiar) exploration time, −1 to 1", "settings": "5xFAD 1 month", "protocol": "We next aimed to test the effect of QR2 inhibition in AD model mice using YB-537, taking advantage of its extremely high specificity, solubility, and lack of toxicity. First, we determined YB-537 pharmacokinetics (PK) and oral bioavailability and assessed any acute observable toxicity in mice. […] We therefore opted to chronically deliver YB-537 to AD-model mice via their drinking water, so they may freely ingest the inhibitor at 50 mg/kg, with minimal intervention or trauma, for 1 month. We chose 9-month-old 5xFAD ([27]) male and female mice in double-blind experiments, so that well-progressed symptoms and pathologies would be present, to mimic clinically relevant cases in human patients ([35]), as has been previously described in this mouse model. Other than an improvement in nest quality ([36]) over time seen in animals receiving YB-537 (starting at age 8 months and ending at age 9 months), no changes to general physical parameters or wellbeing were observed over the 1 month of YB-537 ingestion (Supplemental Figure 6, A–J). […] Since learning in this paradigm was slow, and performance was poor even following 6 days of training (using 4 learning trials a day), a test day was not carried out and instead only the learning rate was measured. […]\nFollowing a 10 minute exploration of a 50 × 50 cm open-field arena, mice were returned to the arena the next day, which contained 2 identical objects. […] Mouse movement, exploration, and nuzzling was automatically recorded with an Ikegami ICD-49E camera with EthoVision 14 (Noldus Information Technology). Discrimination of the novel object was assessed by calculating (time exploring novel object – time exploring familiar object)/(time exploring novel object + time exploring familiar object). […]\nMice were individually placed within a cage and taken to a dimly lit room containing an open field arena 50 x 50 cm in size. […] Th e fl oor was ei ther whit e or black,dependingon mous e coat c ol or, to allow automatic analysisof movement par am et ers, apar t from rearing which was manually counted. […]", "note": "Values joined by “and” are separate entries in the source; they are usually repeats but may differ in a detail not shown here. Equal values may be shown once."}
{"smiles": "Cc1ccc(-c2cn3cccc(C)c3n2)cc1S(=O)(=O)N1CCNCC1", "note": "[YB-537]", "values": [{"measurement": "novel object discrimination (individual mice)", "setting": "both sexes", "value": "-0.101 and 0.504 and 0.236 and 0.249 and -0.330 and 0.874 and 0.145 and -0.163 and -0.038 and -0.010 and 0.265 and -0.414 and 0.439 and 0.710 and 0.259 and 0.231"}, {"measurement": "novel object discrimination (individual mice)", "setting": "females", "value": "0.504 and 0.236 and 0.439 and 0.710 and 0.259 and 0.231 and -0.101"}, {"measurement": "novel object discrimination (individual mice)", "setting": "males", "value": "-0.038 and -0.010 and 0.265 and -0.414 and 0.249 and -0.330 and 0.874 and 0.145 and -0.163"}]}
